Reference: ChEMBL document CHEMBL1201862, “PubChem BioAssay data set” (2004)
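How tested: cells in 96-well plates exposed to compound for 48 hours at five concentrations. Abbreviation: GI50, concentration required for 50% inhibition of growth.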 Calls of active or inactive are those of the source. No stated cut-off is given here; in the data, active = GI50 up to about 1.1 µM and inactive = higher.

Legend:
Assay in all cases: DTP human tumour cell line panel, 48 h
SF-268 = tested on: SF-268
HL-60 = tested on: HL-60
HCC 2998 = tested on: HCC 2998
HOP-92 = tested on: HOP-92
CAKI-1 = tested on: CAKI-1
SK-MEL-28 = tested on: SK-MEL-28
UACC-257 = tested on: UACC-257
NCI-H23 = tested on: NCI-H23
HCT-15 = tested on: HCT-15
OVCAR-3 = tested on: OVCAR-3
M14 = tested on: M14
EKVX = tested on: EKVX
K562 = tested on: K562
KM12 = tested on: KM12
Hs-578T = tested on: Hs-578T
SNB-19 = tested on: SNB-19
786-0 = tested on: 786-0
NCI-H226 = tested on: NCI-H226
BT-549 = tested on: BT-549

Row | SMILES | GI50 (SF-268) | GI50 (HL-60) | GI50 (HCC 2998) | GI50 (HOP-92) | GI50 (CAKI-1) | GI50 (SK-MEL-28) | GI50 (UACC-257) | GI50 (NCI-H23) | GI50 (HCT-15) [µM] | GI50 (OVCAR-3) | GI50 (M14) | GI50 (EKVX) | GI50 (K562) | GI50 (KM12) | GI50 (Hs-578T) | GI50 (SNB-19) | GI50 (786-0) | GI50 (NCI-H226) | GI50 (BT-549)
1 | [N-]=[N+]=C1C(=O)c2ccccc2-c2ccccc21 | 33.3 µM (inactive) | 28.8 µM (inactive) | 51.3 µM (inactive) | 33.3 µM (inactive) | 37.4 µM (inactive) | 60.8 µM (inactive) | 36.7 µM (inactive) | 35 µM (inactive) | 29 | 40.9 µM (inactive) | 44.6 µM (inactive) | 30.5 µM (inactive) | 36.6 µM (inactive) | 39.2 µM (inactive) | 33 µM (inactive) | 45.8 µM (inactive) | 26.1 µM (inactive) | 30 µM (inactive) | 34.4 µM (inactive)
2 | CC(=O)Nc1ccc(S(=O)(=O)/N=C2\C=CC(=O)c3ccccc32)cc1 | 8.02 µM (inactive) | 0.481 µM (active) | 3.21 µM (inactive) | 5.07 µM (inactive) | 17.3 µM (inactive) | 10.5 µM (inactive) | 6.22 µM (inactive) | 4.22 µM (inactive) | 7.62 | 2.45 µM (inactive) | 4.44 µM (inactive) | 6 µM (inactive) | 2.57 µM (inactive) | 10.5 µM (inactive) | 7.64 µM (inactive) | 11.6 µM (inactive) | 9.25 µM (inactive) | 5.97 µM (inactive) | 12.1 µM (inactive)
3 | O=C(OCc1ccccc1)N1CCN(C(=O)OCc2ccccc2)CCN(C(=O)OCc2ccccc2)CCN(C(=O)OCc2ccccc2)CCN(C(=O)OCc2ccccc2)CC1 | – | – | > 100 µM (inactive) | 70.5 µM (inactive) | > 100 µM (inactive) | > 100 µM (inactive) | 26.7 µM (inactive) | – | 46.8 | > 100 µM (inactive) | 35.3 µM (inactive) | > 100 µM (inactive) | – | > 100 µM (inactive) | 39.3 µM (inactive) | > 100 µM (inactive) | 16.8 µM (inactive) | > 100 µM (inactive) | > 100 µM (inactive)
4 | O=S(=O)(O)c1cc(S(=O)(=O)O)c2c(Nc3ccnc4ccccc34)ccc(S(=O)(=O)O)c2c1 | > 100 µM (inactive) | > 100 µM (inactive) | > 100 µM (inactive) | – | > 100 µM (inactive) | > 100 µM (inactive) | > 100 µM (inactive) | > 100 µM (inactive) | > 100 | > 100 µM (inactive) | > 100 µM (inactive) | > 100 µM (inactive) | – | > 100 µM (inactive) | > 100 µM (inactive) | > 100 µM (inactive) | > 100 µM (inactive) | > 100 µM (inactive) | > 100 µM (inactive)
5 | Cc1ccc(S(=O)(=O)N(CC(O)COc2ccccc2)c2c(F)c(F)cc(F)c2F)cc1 (stereo not drawn) | 18.7 µM (inactive) | 4.21 µM (inactive) | 23.6 µM (inactive) | 11.7 µM (inactive) | 15.3 µM (inactive) | 19.5 µM (inactive) | – | 18.8 µM (inactive) | 20.9 | 20.5 µM (inactive) | 23.7 µM (inactive) | 27.9 µM (inactive) | – | 25.7 µM (inactive) | 24.3 µM (inactive) | 27.6 µM (inactive) | 22.3 µM (inactive) | 23.1 µM (inactive) | 24.5 µM (inactive)
6 | CCCCOc1ccc(NC(=N)Nc2ccc(Cl)cc2)cc1 | 0.92 µM (active) | 6.49 µM (inactive) | 0.358 µM (active) | 2.58 µM (inactive) | – | 13.2 µM (inactive) | 0.176 µM (active) | 1.09 µM (active) | 9.35 | 10.2 µM (inactive) | 3.66 µM (inactive) | 2.37 µM (inactive) | 3.01 µM (inactive) | 12.5 µM (inactive) | 5.5 µM (inactive) | 2.74 µM (inactive) | 11.1 µM (inactive) | 12.7 µM (inactive) | 9.57 µM (inactive)
7 | CC(C)NC(=O)OCc1c2c(n(C)c1COC(=O)NC(C)C)-c1cc(Cl)c(Cl)cc1CC2 | 69.2 µM (inactive) | – | 14.9 µM (inactive) | 19.5 µM (inactive) | – | 64.1 µM (inactive) | 28.4 µM (inactive) | 22.1 µM (inactive) | 23.8 | 29.1 µM (inactive) | 27.9 µM (inactive) | 33.3 µM (inactive) | 16.6 µM (inactive) | 30.6 µM (inactive) | 32.1 µM (inactive) | 37.8 µM (inactive) | 37.2 µM (inactive) | 8.91 µM (inactive) | 68.2 µM (inactive)
8 | N#Cc1ccc(/C=[N+](/C=c2ccc(=C=[N-])cc2)N(CCO)C2=NCCN2)cc1 | > 100 µM (inactive) | > 100 µM (inactive) | > 100 µM (inactive) | – | > 100 µM (inactive) | – | > 100 µM (inactive) | > 100 µM (inactive) | > 100 | > 100 µM (inactive) | > 100 µM (inactive) | > 100 µM (inactive) | > 100 µM (inactive) | > 100 µM (inactive) | > 100 µM (inactive) | > 100 µM (inactive) | > 100 µM (inactive) | > 100 µM (inactive) | > 100 µM (inactive)
9 | CC(C)=CCC\C(C)=C/C=C/C(C)=C\C=C\C(C)=C/C=C/C=C(C)\C=C\C=C(C)/C=C/C=C(/C)CCC=C(C)C | > 100 µM (inactive) | > 100 µM (inactive) | > 100 µM (inactive) | > 100 µM (inactive) | > 100 µM (inactive) | > 100 µM (inactive) | > 100 µM (inactive) | – | > 100 | > 100 µM (inactive) | > 100 µM (inactive) | > 100 µM (inactive) | > 100 µM (inactive) | > 100 µM (inactive) | > 100 µM (inactive) | > 100 µM (inactive) | > 100 µM (inactive) | > 100 µM (inactive) | > 100 µM (inactive)
10 | O=C1N=C(SC2OC(CO)C(O)C(O)C2O)S/C1=C\c1ccccc1 (stereo not drawn) | > 100 µM (inactive) | > 100 µM (inactive) | > 100 µM (inactive) | – | > 100 µM (inactive) | > 100 µM (inactive) | > 100 µM (inactive) | > 100 µM (inactive) | > 100 | > 100 µM (inactive) | > 100 µM (inactive) | – | > 100 µM (inactive) | > 100 µM (inactive) | > 100 µM (inactive) | > 100 µM (inactive) | > 100 µM (inactive) | > 100 µM (inactive) | > 100 µM (inactive)
11 | OCC1OC(c2n[nH]c3c(O)ncnc23)C(O)C1O (stereo not drawn) | – | 3.02 µM (inactive) | 18.7 µM (inactive) | – | 6.81 µM (inactive) | 50 µM (inactive) | > 100 µM (inactive) | 32.4 µM (inactive) | 6.03 | 9.18 µM (inactive) | 5.48 µM (inactive) | 28 µM (inactive) | 7.48 µM (inactive) | 16.7 µM (inactive) | 33.8 µM (inactive) | 31 µM (inactive) | 9.4 µM (inactive) | 44.9 µM (inactive) | 56.8 µM (inactive)
12 | Cn1cc(-c2ccc(CCOC3CCCCO3)cc2)c2c(C#N)cccc21 (stereo not drawn) | > 100 µM (inactive) | 19.9 µM (inactive) | 35.7 µM (inactive) | > 100 µM (inactive) | > 100 µM (inactive) | 14.9 µM (inactive) | 24.7 µM (inactive) | 48.3 µM (inactive) | 16.6 | 67.8 µM (inactive) | 37.8 µM (inactive) | 35.6 µM (inactive) | 22.9 µM (inactive) | 61.7 µM (inactive) | > 100 µM (inactive) | > 100 µM (inactive) | 92.3 µM (inactive) | – | 98.6 µM (inactive)
13 | O=C(NCCC1CN(C(=O)OCc2ccccc2)c2ccccc21)OCc1ccccc1 (stereo not drawn) | > 100 µM (inactive) | – | > 100 µM (inactive) | > 100 µM (inactive) | > 100 µM (inactive) | > 100 µM (inactive) | > 100 µM (inactive) | > 100 µM (inactive) | > 100 | > 100 µM (inactive) | > 100 µM (inactive) | 64.6 µM (inactive) | > 100 µM (inactive) | > 100 µM (inactive) | > 100 µM (inactive) | > 100 µM (inactive) | > 100 µM (inactive) | – | > 100 µM (inactive)
14 | Fc1ccc2nc3n(c2c1)C(c1c(Cl)cccc1Cl)SC3 (stereo not drawn) | > 100 µM (inactive) | – | > 100 µM (inactive) | 50.4 µM (inactive) | > 100 µM (inactive) | > 100 µM (inactive) | > 100 µM (inactive) | > 100 µM (inactive) | > 100 | > 100 µM (inactive) | > 100 µM (inactive) | – | – | > 100 µM (inactive) | > 100 µM (inactive) | > 100 µM (inactive) | > 100 µM (inactive) | > 100 µM (inactive) | > 100 µM (inactive)
15 | CC1(C)C2CCC1(C)C(NC(=O)COCCOCC(N)=O)C2 (stereo not drawn) | > 100 µM (inactive) | 56.2 µM (inactive) | 45 µM (inactive) | > 100 µM (inactive) | > 100 µM (inactive) | > 100 µM (inactive) | > 100 µM (inactive) | > 100 µM (inactive) | – | > 100 µM (inactive) | > 100 µM (inactive) | > 100 µM (inactive) | 32.1 µM (inactive) | > 100 µM (inactive) | > 100 µM (inactive) | > 100 µM (inactive) | > 100 µM (inactive) | > 100 µM (inactive) | > 100 µM (inactive)
16 | CC(C)C(=O)[C@@]1(C)SC[C@H]2CCN=C21 | – | > 100 µM (inactive) | > 100 µM (inactive) | 16.9 µM (inactive) | 17 µM (inactive) | > 100 µM (inactive) | > 100 µM (inactive) | > 100 µM (inactive) | > 100 | > 100 µM (inactive) | 71 µM (inactive) | > 100 µM (inactive) | > 100 µM (inactive) | > 100 µM (inactive) | > 100 µM (inactive) | > 100 µM (inactive) | > 100 µM (inactive) | > 100 µM (inactive) | > 100 µM (inactive)
